The results in this text go back to ChEMBL document CHEMBL3727354, “3-(2-amino-ethyl)-5-(3-cyclohexyl-propylidene)-thiazolidine-2,4-dione and its derivatives as multiple signaling pathway inhibitors and for the treatment of cancer” (2011).

Each structure is given as a SMILES string. Activity calls are given as the source filed them. The rule behind the calls is not given here.

The test system of data set [1] is B16-F10. The experiment in a line: Antitumor activity against mouse B16F10 cells implanted in B6C3F1 mouse assessed as increase in mouse survival rate at 50 mg/kg, ip administered on day 11 post tumor implantation measured twice a day during compound dosing. The class given is functional, organism-based.
Data set [2] can be described thus: Cell cycle arrest in human U937 cells assessed as accumulation at G2/M phase after 24 hrs by propidium iodide staining-based flow cytometric analysis. The settings on record: U-937. The data set is classed as functional.
Data set [3] in a line: Cell cycle arrest in human U937 cells assessed as decrease in cell level at S phase after 24 hrs by propidium iodide staining-based flow cytometric analysis. The class given is functional. The settings on record: U-937.
The nature of data set [4]: Cell cycle arrest in human U937 cells assessed as decrease in cell level at G0/G1 phase after 24 hrs by propidium iodide staining-based flow cytometric analysis. The data set is classed as functional. The settings on record: U-937.
The subject of data set [5] is Mus musculus. Kind of data set: Toxicity in B6C3F1 mouse assessed as effect on general health at 20 mg/kg, po administered for 21 days. The settings on record: in vivo, 504 h. The data set is classed as organism-based.
Data set [6] deals with Mus musculus. The experiment in a line: Toxicity in B6C3F1 mouse assessed as effect on body weight at 20 mg/kg, po administered for 21 days. The data set is classed as organism-based. The settings on record: in vivo, 504 h.
The nature of data set [7]: Inhibition of Raf/MEK/ERK pathway in human U937 cells assessed as inhibition of ERK1/2 phosphorylation at Thr202/Tyr204 at 3 uM preincubated for 1 hr followed by PMA stimulation measured after 30 mins by Western blot analysis. The settings on record: U-937. The class given is cell-based.
A short description of data set [8]: Inhibition of Raf/MEK/ERK pathway in human U937 cells assessed as reduction of MEK phosphorylation preincubated for 1 hr followed by PMA stimulation measured after 30 mins by Western blot analysis. The class given is cell-based. The settings on record: U-937.
Data set [9] can be described thus: Inhibition of Raf/MEK/ERK pathway in human U937 cells assessed as reduction of MEK phosphorylation at 0.3 to 30 uM preincubated for 1 hr followed by PMA stimulation measured after 30 mins by Western blot analysis in presence of MEK inhibitor PD184352. The class given is cell-based. The settings on record: U-937.
Data set [10] can be described thus: Inhibition of PI3K/Akt pathway in human U937 cells assessed as reduction of Akt phosphorylation preincubated for 1 hr followed by PMA stimulation measured after 30 mins by Western blot analysis. The data set is classed as cell-based. The settings on record: U-937.
The test system of data set [11] is U-937. The experiment in a line: Induction of apoptosis in human U937 cells after 24 hrs by annexin V/propidium iodide staining-based flow cytometric analysis. The data set is classed as functional, cell-based.
Data set [12] relates to M12. The experiment in a line: Induction of apoptosis in human M12 cells after 24 hrs by annexin V/propidium iodide staining-based flow cytometric analysis. The data set is classed as functional, cell-based.
The subject of data set [13] is DU-145. Kind of data set: Induction of apoptosis in human DU145 cells at 5 to 25 uM after 24 hrs by annexin V/propidium iodide staining-based flow cytometric analysis. The class given is functional, cell-based.
Data set [14] relates to B16-F10. The experiment in a line: Antitumor activity against mouse B16F10 cells implanted in B6C3F1 mouse assessed as decrease in lung tumor nodules at 20 mg/kg administered daily via oral gavage started one day before tumor implantation and stopped at day 15 post tumor implantation measured at day 18. The class given is functional, organism-based.
Data set [15] relates to Mus musculus. Kind of data set: Toxicity in B6C3F1 mouse assessed as effect on general health at 30 to 80 mg/kg, po administered for 21 days. The data set is classed as organism-based. The settings on record: in vivo, 504 h.
The test system of data set [16] is Mus musculus. The experiment in a line: Toxicity in B6C3F1 mouse assessed as effect on body weight at 30 to 80 mg/kg, po administered for 21 days. The settings on record: in vivo, 504 h. The class given is organism-based.

Consider `Cl.NCCN1C(=O)S/C(=C\CCc2ccccc2)C1=O`, for which the outcome in data set [1], in data set [2], in data set [3] and in data set [4] was Active. The Activity result in data set [5] and in [6] was “Non-toxic” in each case.
Take `Cl.NCCN1C(=O)S/C(=C\CCC2CCCCC2)C1=O`: the outcome in data set [2], in data set [3], in data set [4] and in data set [14] was Active. The inhibition entry in [7] is “Active”. The inhibition entry in data set [8] and in data set [10] was “Dose-dependent effect” in each case. Besides, the inhibition entry in data set [9] is “inactive”. The Activity result in data set [11] was “Dose-dependent effect”; in [12], “Dose-dependent effect”; in [15] it was “Non-toxic”; in data set [16], “Non-toxic”. Further, in data set [13], the outcome was inactive.
